Source: article PMC9106635, “Stimulation of the atypical chemokine receptor 3 (ACKR3) by a small-molecule agonist attenuates fibrosis in a preclinical liver but not lung injury model” (Cellular and Molecular Life Sciences: CMLS, 2022)
Like-named read-outs stand apart in the source and are kept apart here.

Assays:
[1] = Compound concentration in liver and lung tissue homogenates (LC-MS/MS); type: in vivo, mouse; settings: mean ± sem
Experimental: Pharmacokinetic analysis of plasma samples was performed at GVK BIO Sciences Pvt. Ltd. (Hyderabad, India). The pharmacokinetic properties of compound 18a were determined by subcutaneous administration in male C57BL/6 mice. A 30 mg/kg dose was formulated as a solution in 23% hydroxypropyl-beta-cyclodextrin (HPBCD; w/v) in water. The dose volume was 3 mL/kg. Serial blood samples were collected at 0.5, 1, 2, 4, 6, 8 and 24 h post dosing (n = 3). Plasma concentration of compound 18a was determined by a LC–MS/MS method. Chromatography was performed on a reverse phase column (Kinetex EVO, C18, 50 × 4.6 mm, 5 µ) at a flow rate of 1 mL/minute, using a gradient-elution method. Mobile Phase A was a 10 mM ammonium acetate solution with 0.1% formic acid in water, whereas mobile phase B was a mixture of acetonitrile and methanol (50:50). The gradient started at 5% B ramped up to 95% B over 1 min, held at 95% B for 1.2 min, and then ramped down to 5% B over 0.1 min, and held at 5% B for 1.2 min. The mass spectrometer was operated in positive-ionization mode and Telmisartan was used as internal standard. […] The Cmax, Tmax, AUC and half-life value (t1/2) were determined using standard non-compartmental pharmacokinetic methods. The concentration of compound 18a in liver and lung tissue was determined by LC–MS/MS at Eurofins (Vergeze, France). […] Data are expressed as mean ± sem.

[2] = molecular target: hACKR3 (Homo sapiens, UniProt P25106); test: β-arrestin2 recruitment assay (PathHunter CHO-K1 CXCR7 β-arrestin cell line); type: cell-based; set-up: host or cells: CHO-K1 (PathHunter CXCR7 β-arrestin cell line)
Experimental: β-arrestin2 recruitment downstream of ACKR3 activation was analyzed using the PathHunter CHO-K1 CXCR7 β-arrestin Cell Line (93-0248C2; DiscoverX). Cells were cultured in AssayComplete™ Cell Culture Kit-107 (92-3107G; DiscoverX) at 37 °C and 5% CO2. Briefly, 20,000 cells/well were seeded in AssayComplete™ Cell Plating 2 Reagent (93-0563R2A; DiscoverX) in a white 96-well plate (100 µL/well) with clear bottom (Costar, 3610) and incubated overnight at 37 °C and 5% CO2. The next day, 10 µL/well of test compound (11 × concentrated) was added and cells were incubated for 90 min at 37 °C and 5% CO2. Compounds were tested in duplicate in a 1:4 dilution series ranging from 1000 nM to 0.06 nM final concentration. After incubation, 55 µL/well of detection reagent (PathHunter Detection kit; 93-0001; DiscoverX) was added and cells were incubated for 1 h at room temperature (RT) protected from light. Finally, luminescence was measured using a FLIPR Tetra® device (Molecular Devices, Sunnyvale, CA, USA). Four parameter non-linear curve fitting (GraphPad Prism 9.0.2) was used to determine the EC50 value for β-arrestin2 recruitment.

[3] = molecular target: hCXCR4 (Homo sapiens, UniProt P61073); test: Ca2+ mobilization assay, U87.CD4.CXCR4 cells, CXCL12-induced; type: cell-based; set-up: expressed in transfected cells; host or cells: U87.CD4.CXCR4; settings: antagonism of CXCL12 response
Experimental: The calcium (Ca^2+) mobilization assay was described in detail before. Briefly, U87.CD4.CXCR4 or U87.CD4.CCR5 cells (2 × 10^4 cells per well in DMEM/10% FBS/0.01 M HEPES) were seeded in gelatin-coated (Sigma-Aldrich; 0.1% gelatin in DPBS) black-walled 96-well plates and incubated overnight at 37 °C and 5% CO2. The next day, cells were loaded with the fluorescent Ca^2+ indicator Fluo-2 acetoxymethyl (AM) ester (4 μM final concentration; Abcam) and incubated at RT in the dark for 45 min. Then, cells were washed with assay buffer (see above) and subsequently incubated with different concentrations of compound for ~ 10 min prior to addition of 6.25 nM CXCL12 (in case of CXCR4) or 6.4 nM CCL5 (in case of CCR5). Fluctuations in intracellular Ca^2+ levels were measured in real time by the FLIPR Tetra® device (Molecular Devices) in all 96 wells simultaneously. The response (Relative Light Units, RLUs) over baseline was calculated (ScreenWorks 4.0® software, Molecular Devices) by dividing the RLUs by a base line value measured just before addition of CXCL12 or CCL5, respectively. Inhibition of the Ca^2+ response was determined taking into account negative (i.e., untreated cells without stimulation) and positive (i.e., untreated cells stimulated with either CXCL12 or CCL5) control samples.

[4] = system: mouse CXCL12 plasma levels; test: Mouse CXCL12 plasma determination (Bio-Plex); type: in vivo
Experimental: CXCL12 plasma levels were determined using Bio-Plex Pro Mouse Chemokine SDF-1a/CXCL12 (Bio-Rad) according to the manufacturer’s protocol. Prior to the assay mouse plasma samples were centrifuged for 15 min at 1000×g at 4 °C to remove any particulates. A four-fold dilution series of mouse CXCL12, blank samples and 1:5 diluted plasma samples were prepared. A 1:1 mixture of magnetic beads (50 µL/well) and sample (50 µL/well) was added to the 96-well assay plate, which was then sealed and incubated (30 min at RT) on a plate shaker at 850 rpm protected from light. After washing three times with wash buffer 25 µL/well detection antibody was added and the plate was again incubated as described above. The plate was again washed three times (100 µL/well wash buffer) followed by the addition of streptavidin-PE (50 µL/well). The plate was sealed and incubated (10 min at RT) at 850 rpm protected from light. Finally, the plate was again washed three times and the magnetic beads were resuspended in fresh assay buffer (152 µL/well). The plate was sealed and shaken for an additional 30 s before being analyzed with the Bioplex 200 System. Data were analyzed with the Bio-Plex Manager Software.

hACKR3, sequence (P25106 whole entry): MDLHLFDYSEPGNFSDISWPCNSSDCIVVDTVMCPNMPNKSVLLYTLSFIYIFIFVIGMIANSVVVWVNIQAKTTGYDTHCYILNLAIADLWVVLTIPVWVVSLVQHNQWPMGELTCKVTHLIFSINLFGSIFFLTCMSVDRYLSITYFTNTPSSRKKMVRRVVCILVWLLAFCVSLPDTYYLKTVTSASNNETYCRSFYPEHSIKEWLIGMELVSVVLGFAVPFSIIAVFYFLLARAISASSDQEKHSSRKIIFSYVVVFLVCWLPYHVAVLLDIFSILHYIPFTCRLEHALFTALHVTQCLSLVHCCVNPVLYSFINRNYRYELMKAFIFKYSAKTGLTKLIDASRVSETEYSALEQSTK
hCXCR4, sequence (P61073 whole entry): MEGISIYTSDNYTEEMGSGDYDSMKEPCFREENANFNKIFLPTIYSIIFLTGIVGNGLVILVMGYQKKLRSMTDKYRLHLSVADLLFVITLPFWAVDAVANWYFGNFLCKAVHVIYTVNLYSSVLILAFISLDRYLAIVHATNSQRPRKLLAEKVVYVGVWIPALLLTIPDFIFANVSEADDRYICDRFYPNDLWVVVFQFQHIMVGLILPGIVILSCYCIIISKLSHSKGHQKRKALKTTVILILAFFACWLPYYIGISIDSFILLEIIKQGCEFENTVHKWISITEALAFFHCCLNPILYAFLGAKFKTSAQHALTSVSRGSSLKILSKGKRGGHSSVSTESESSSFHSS

concentration in lung tissue ([1]; day 21, 2 h after last subcutaneous dose (15 mg/kg BID), n=4): 1703 ± 54 ng/g tissue | concentration in liver tissue ([1]; day 28, 2 h after last subcutaneous dose (15 mg/kg BID), n=3): 2528 ± 511 ng/g tissue | EC50 ([2]; conversion of 3.16 nM, read-out: EC50 β-arrestin2 recruitment expressed in ng/mL (converted)): 3.25 nM | EC50 ([2]; mean ± SD of two independent experiments, read-out: EC50 β-arrestin2 recruitment): 3.16 ± 0.12 nM | EC50 ([2]; taking into account 34% free fraction, read-out: EC50 corrected for free fraction in mouse plasma (target value) (converted)): 9.95 nM | IC50 [3]: > 40 µM
SMILES: CCc1ccn2ccnc2c1N1CCCN(C(CC(N)=O)C2CCN(C(=O)C3CC4CCC3O4)CC2)CC1 (stereo not drawn) [compound 18a]
increase of plasma CXCL12-levels ([4]; liver fibrosis model, day 7, 15 mg/kg/dose SC BID): ~ threefold | plasma CXCL12 levels ([4]; liver fibrosis model, day 28, 15 mg/kg/dose SC BID): led to increased CXCL12 levels | plasma CXCL12 levels ([4]; lung fibrosis model, day 21, 15 mg/kg/dose SC BID, vs vehicle (23% HPBCD)): increased mouse CXCL12 plasma levels
